Test results as given in patent US7838495B2, “Compositions and methods of use of EPB1, and ErbB3 binding protein” (University of Maryland, Baltimore, priority 2007, dated 2010).

Assays:
AR = AR (Homo sapiens, UniProt P10275, T878A)
Method: Luciferase Reporter Assays: Vector control or EBP1-transfected LNCaP (5×10^4) cells were plated in twelve-well plates in complete media. When cells reached 50-60% confluence, they were transfected with 0.5 μg of MMTV-luc using the Fugene-6 reagent (Roche). Cells were also transfected with the RL-TK vector as an internal control. […] Luciferase activity was determined as previously described using a Dual-Luciferase kit (Promega, Madison, Wis.). The activities of renilla luciferase were used to normalize any variations in transfection efficiency. The promoter activities of each plasmid construct were calculated as the firefly-renilla luciferase activity ratios. All transfection experiments were carried out in triplicate wells and repeated three times.

[1] = tested on: AR regulated MMTV promoter; experiment: MMTV-luciferase reporter response to R1881 in A16 and C13 cells; type: cell-based, human; details: EBP1 knock out cells vs A16, R1881 10^-8 M, p<0.05
Method: FIG. 7A-C. Suppression of EBP1 by shRNA promotes a hormone refractory phenotype A. Western blot analysis of Ebp1. Lysates of LNCaP cells stably transduced with a control lentivirus (A16) or an EBP1 targeted shRNA (13C) were collected and resolved by SDS-PAGE. Western blots were probed for endogenous EBP1 or ACTIN as indicated. B. Inhibition of EBP1 expression abrogates the ability of HRG to arrest growth (Left panel) Control and shRNA EBP1 targeted cells were plated in complete media at […] for one day. The next day, cells were switched to steroid reduced-media and HRG added at the indicated concentrations. Total cell numbers were determined seven days later by MTT assay. Each point represents mean±S.E. of 6 wells. Data is representative of three experiments. (Right Panel) AKT phosphorylation in EBP1 knock out cells Control (A16) or EBP 1 knock out cells (C13) were treated with HRG (20 ng/ml) for 15 mm and cell lysates assessed for the presence of phospho and total AKT as indicated. C. […] Sixteen hours later, luciferase activity was measured. […] Lysates of logarithmically growing A16 and C13 cells were resolved by SDS-PAGE and analyzed by Western blotting using antibodies to AGR2 and ACTIN as indicated. […] The viability of the cells was determined by MTT assays 5 days later. […]

AR, sequence (P10275 whole entry T878A): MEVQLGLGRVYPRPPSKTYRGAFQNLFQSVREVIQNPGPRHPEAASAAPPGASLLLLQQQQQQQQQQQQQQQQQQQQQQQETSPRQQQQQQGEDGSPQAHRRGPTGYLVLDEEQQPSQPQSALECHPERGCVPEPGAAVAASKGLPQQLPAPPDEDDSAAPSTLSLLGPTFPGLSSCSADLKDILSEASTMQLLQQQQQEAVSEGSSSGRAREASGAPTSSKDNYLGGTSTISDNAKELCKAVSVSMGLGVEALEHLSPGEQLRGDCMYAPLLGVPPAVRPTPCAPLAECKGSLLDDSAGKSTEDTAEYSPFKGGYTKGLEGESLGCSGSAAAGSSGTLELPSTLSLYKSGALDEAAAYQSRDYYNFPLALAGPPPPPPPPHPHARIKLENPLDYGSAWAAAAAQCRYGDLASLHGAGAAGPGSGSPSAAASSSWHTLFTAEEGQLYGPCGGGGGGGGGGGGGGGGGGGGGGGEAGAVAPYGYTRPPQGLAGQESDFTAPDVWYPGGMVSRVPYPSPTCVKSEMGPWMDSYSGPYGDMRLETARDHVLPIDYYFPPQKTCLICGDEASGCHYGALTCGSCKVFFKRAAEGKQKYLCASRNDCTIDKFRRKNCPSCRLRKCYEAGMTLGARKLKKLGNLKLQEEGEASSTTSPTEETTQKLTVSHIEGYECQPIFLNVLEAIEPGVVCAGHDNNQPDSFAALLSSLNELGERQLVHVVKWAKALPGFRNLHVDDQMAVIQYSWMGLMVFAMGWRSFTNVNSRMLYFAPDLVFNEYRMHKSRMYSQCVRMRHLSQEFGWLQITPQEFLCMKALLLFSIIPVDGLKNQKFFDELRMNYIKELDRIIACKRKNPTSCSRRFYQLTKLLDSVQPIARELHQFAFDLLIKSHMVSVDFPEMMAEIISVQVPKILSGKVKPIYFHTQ

## C[C@]1(O)CC[C@H]2[C@@H]3CCC4=CC(=O)CCC4=C3C=C[C@@]21C [R1881]
AR; LNCaP EPB1 transfectants
  AR activation (MMTV-luc): neither R1881 nor cyproterone acetate nor the combination thereof stimulated AR activation
AR; LNCaP vector controls, 10^-8 M
  activation of MMTV-luc luciferase activity: 20 fold
[1]
  transcriptional response of AR regulated MMTV promoter to R1881: enhanced
